From US7135466B2 (Kirin Beer Kabushiki Kaisha, priority 1999, dated 2006) come the findings set out here.

Structures are written as SMILES.

Assay [1] addresses T1, PDGF-Ra (Homo sapiens, UniProt P16234).
T1 construct: host or cells: G-292 human osteosarcoma cells
The experiment in a line: Inhibitory activity against PDGF-Ra phosphorylation by PDGF-AA stimulation using G292. In kind it is cell-based. Conditions: > means inhibition at indicated concentration not more than 50%, < and << not less than 50%; read-out: PDGF (E) IC50. An outline of the steps:
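Cells seeded in low-serum medium are exposed to test compound for one hour, then PDGF-AA (50 ng/ml) triggers receptor phosphorylation for 5 min at 37 °C. Phospho-PDGF-Ra in solubilized cells is quantified by anti-phosphotyrosine capture ELISA at 450 nm.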

In assay [2] the target is T2, c-kit (Homo sapiens, UniProt P10721).
T2 construct: MO7e (human megakaryocytic leukemia cell line) which had been arrested for 20 hr; endogenous in cells; host or cells: MO7e human megakaryocytic leukemia cell line
Put plainly: Inhibitory activity against c-kit autophosphorylation (MO7e cells, h-SCF). Conditions: for inhibition at 1 µM: Mo7e, figure in parentheses in −( ), at 1000 nM; for IC50: MO7e cells, h-SCF stimulation, read-out: c-kit IC50. In kind it is cell-based. An outline of the steps: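 MO7e human megakaryocytic leukemia cells, arrested 20 hr, treated with compound 1 hr, then stimulated with 50 ng/ml h-SCF for 5 min and lysed. Lysates captured on immobilized anti-phosphotyrosine antibody, detected with anti-c-kit primary and HRP secondary antibody; absorbance at 450 nm.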

Usually IC50 stands for the concentration that inhibits the measured activity by half. One may read the inhibition as the percentage by which the read-out fell short of the control.

T1 sequence (P16234 24-1089): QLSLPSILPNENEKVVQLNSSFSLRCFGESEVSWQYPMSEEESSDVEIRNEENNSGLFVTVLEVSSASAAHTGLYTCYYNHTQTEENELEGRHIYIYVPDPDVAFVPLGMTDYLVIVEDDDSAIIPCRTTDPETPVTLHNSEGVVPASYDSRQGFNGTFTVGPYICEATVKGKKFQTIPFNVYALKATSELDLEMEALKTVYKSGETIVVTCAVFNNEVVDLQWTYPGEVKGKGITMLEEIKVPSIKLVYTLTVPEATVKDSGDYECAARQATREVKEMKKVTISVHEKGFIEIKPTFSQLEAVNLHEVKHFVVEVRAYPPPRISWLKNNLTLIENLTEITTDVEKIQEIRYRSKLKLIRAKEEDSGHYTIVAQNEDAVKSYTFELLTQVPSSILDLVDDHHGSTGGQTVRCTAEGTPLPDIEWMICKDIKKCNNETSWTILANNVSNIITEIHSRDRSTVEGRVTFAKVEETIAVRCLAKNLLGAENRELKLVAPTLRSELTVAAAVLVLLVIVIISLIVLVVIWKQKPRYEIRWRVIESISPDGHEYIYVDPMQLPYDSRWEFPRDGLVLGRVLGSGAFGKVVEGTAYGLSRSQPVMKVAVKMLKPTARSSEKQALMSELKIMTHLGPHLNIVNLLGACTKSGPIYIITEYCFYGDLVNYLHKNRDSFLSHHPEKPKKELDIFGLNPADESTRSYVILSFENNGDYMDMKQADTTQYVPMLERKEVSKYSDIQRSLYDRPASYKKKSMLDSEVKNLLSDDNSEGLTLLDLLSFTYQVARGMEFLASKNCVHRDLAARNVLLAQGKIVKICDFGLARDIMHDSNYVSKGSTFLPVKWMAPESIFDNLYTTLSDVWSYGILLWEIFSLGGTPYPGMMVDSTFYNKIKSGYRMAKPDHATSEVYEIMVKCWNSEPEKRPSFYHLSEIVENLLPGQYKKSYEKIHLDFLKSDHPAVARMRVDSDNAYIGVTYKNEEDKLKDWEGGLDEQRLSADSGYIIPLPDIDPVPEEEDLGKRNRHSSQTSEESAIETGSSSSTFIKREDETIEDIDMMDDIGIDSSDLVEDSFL
T2 sequence (P10721 26-976): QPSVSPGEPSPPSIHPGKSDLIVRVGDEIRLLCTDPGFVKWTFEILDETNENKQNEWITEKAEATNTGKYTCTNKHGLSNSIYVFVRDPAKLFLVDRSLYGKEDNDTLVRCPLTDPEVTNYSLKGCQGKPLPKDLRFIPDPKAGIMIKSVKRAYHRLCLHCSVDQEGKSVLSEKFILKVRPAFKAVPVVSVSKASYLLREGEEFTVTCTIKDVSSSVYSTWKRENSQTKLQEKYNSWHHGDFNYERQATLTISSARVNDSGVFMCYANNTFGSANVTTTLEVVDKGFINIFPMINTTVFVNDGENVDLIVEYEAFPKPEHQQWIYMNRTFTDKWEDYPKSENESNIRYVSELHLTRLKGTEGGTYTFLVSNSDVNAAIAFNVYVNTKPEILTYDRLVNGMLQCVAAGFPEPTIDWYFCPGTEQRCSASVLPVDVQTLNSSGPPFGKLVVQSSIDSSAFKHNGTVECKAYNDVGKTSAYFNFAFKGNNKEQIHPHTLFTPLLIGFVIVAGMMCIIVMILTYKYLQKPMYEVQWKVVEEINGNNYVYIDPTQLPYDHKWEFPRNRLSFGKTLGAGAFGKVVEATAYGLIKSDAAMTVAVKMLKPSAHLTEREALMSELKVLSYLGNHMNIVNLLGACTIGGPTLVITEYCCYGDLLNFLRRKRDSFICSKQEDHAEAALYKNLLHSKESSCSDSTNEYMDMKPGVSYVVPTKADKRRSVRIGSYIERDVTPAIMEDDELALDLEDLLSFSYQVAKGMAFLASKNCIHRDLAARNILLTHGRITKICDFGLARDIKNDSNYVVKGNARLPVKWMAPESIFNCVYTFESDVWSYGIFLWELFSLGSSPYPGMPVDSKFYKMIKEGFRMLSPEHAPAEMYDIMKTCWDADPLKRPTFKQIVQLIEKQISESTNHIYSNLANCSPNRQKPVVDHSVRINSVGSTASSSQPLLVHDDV

Turning to `CCCCc1ccc(C(=O)NC(=S)Nc2ccc(Oc3ccnc4cc(OC)c(OC)cc34)cc2F)cc1` [Example 995, N-(4-Butylbenzoyl)-N′-{4-[(6,7-dimethoxy-4-quinolyl)oxy]-2-fluorophenyl}thiourea], the IC50 in assay [1] stood at 0.087 µM. The inhibition at 1 µM in assay [2] worked out at 23%.

In the case of `COc1cc2nccc(Oc3ccc(NC(=S)NC(=O)c4ccc(CCl)cc4)c(F)c3)c2cc1OC` [Example 996, N-[4-(Chloromethyl)benzoyl]-N′-{4-[(6,7-dimethoxy-4-quinolyl)oxy]-2-fluorophenyl}thiourea], in assay [1], the half-inhibitory concentration (IC50) stood at 0.053 µM. In addition, the inhibition at 1 µM in assay [2] was found to be 27%.

For `CCc1ccc(C(=O)NC(=S)Nc2ccc(Oc3ccnc4cc(OC)c(OC)cc34)c(F)c2)cc1` [Example 997, N-{4-[(6,7-Dimethoxy-4-quinolyl)oxy]-3-fluorophenyl}-N′-(4-ethylbenzoyl)thiourea], the concentration for half-maximal inhibition (IC50) in assay [1] was found to be 0.009 µM; in assay [2], 0.264 µM.

As to `CCCc1ccc(C(=O)NC(=S)Nc2ccc(Oc3ccnc4cc(OC)c(OC)cc34)c(F)c2)cc1` [Example 998, N-{4-[(6,7-Dimethoxy-4-quinolyl)oxy]-3-fluorophenyl}-N′-(4-propylbenzoyl)thiourea], the IC50 in assay [1] stood at 0.025 µM; in assay [2], 0.591 µM.

As to `CCCCc1ccc(C(=O)NC(=S)Nc2ccc(Oc3ccnc4cc(OC)c(OC)cc34)c(F)c2)cc1` [Example 999, N-(4-Butylbenzoyl)-N′-{4-[(6,7-dimethoxy-4-quinolyl)oxy]-3-fluorophenyl}thiourea], the IC50 in assay [1] came out at 0.029 µM. In assay [2], the inhibition at 1 µM turned out to be 45%.

Take `COc1cc2nccc(Oc3ccc(NC(=S)NC(=O)c4ccc(CCl)cc4)cc3F)c2cc1OC` [Example 1000, N-[4-(Chloromethyl)benzoyl]-N′-{4-[(6,7-dimethoxy-4-quinolyl)oxy]-3-fluorophenyl}thiourea]: the half-maximal inhibitory concentration (IC50) in assay [1] came out at 0.003 µM; in assay [2] it was 0.771 µM.

On to `CCCc1ccc(C(=O)NC(=S)Nc2ccc(Oc3ccnc4cc(OC)c(OC)cc34)c(Cl)c2)cc1` [Example 1001, N-{3-Chloro-4-[(6,7-dimethoxy-4-quinolyl)oxy]phenyl}-N′-(4-propylbenzoyl)thiourea], for which the IC50 in assay [1] was less than 0.01 µM. Further, the inhibition at 1 µM in assay [2] was found to be 34%.

On to `COc1cc2ncnc(Oc3ccc(NC(=S)NC(=O)c4ccc(CCl)cc4)cc3)c2cc1OC` [Example 1002, N-[4-(Chloromethyl)benzoyl]-N′-{4-[(6,7-dimethoxy-4-quinazolinyl)oxy]phenyl}thiourea], for which the IC50 in assay [1] is less than 0.01 µM. The inhibition at 1 µM in assay [2] came to 16%.

For `COc1cc2nccc(Oc3ccc(NC(=S)NC(=O)c4ccc(C)cc4C)cc3)c2cc1OC` [Example 1003, N-{4-[(6,7-Dimethoxy-4-quinolyl)oxy]phenyl}-N′-(2,4-dimethylbenzoyl)thiourea], the figures for the half-maximal inhibitory concentration (IC50) in assay [1] and in assay [2] were 0.024 µM and 0.628 µM, respectively.

As for `COc1cc2nccc(Oc3ccc(NC(=S)NC(=O)c4cc(C)ccc4C)cc3)c2cc1OC` [Example 1004, N-{4-[(6,7-Dimethoxy-4-quinolyl)oxy]phenyl}-N′-(2,5-dimethylbenzoyl)thiourea], the half-maximal inhibitory concentration (IC50) in assay [1] turned out to be 0.01 µM; in assay [2] it was 0.877 µM.

In the case of `COc1cc2nccc(Oc3ccc(NC(=S)NC(=O)c4cccc(C)c4C)cc3)c2cc1OC` [Example 1005, N-{4-[(6,7-Dimethoxy-4-quinolyl)oxy]phenyl}-N′-(2,3-dimethylbenzoyl)thiourea], the 50% inhibitory concentration (IC50) amounted to 0.028 µM in assay [1] and 0.674 µM in assay [2].

On to `COc1cc2nccc(Oc3ccc(NC(=S)NC(=O)c4cc(Cl)cc(Cl)c4)cc3)c2cc1OC` [Example 1009, N-(3,5-Dichlorobenzoyl)-N′-{4-[(6,7-dimethoxy-4-quinolyl)oxy]phenyl}thiourea], for which the IC50 in assay [1] stood at 0.021 µM; in assay [2], 0.243 µM.

On to `COc1cc2nccc(Oc3ccc(NC(=S)NC(=O)c4cccc(C)c4C)cc3Cl)c2cc1OC` [Example 1018, N-{3-Chloro-4-[(6,7-dimethoxy-4-quinolyl)oxy]phenyl}-N′-(2,3-dimethylbenzoyl)thiourea], for which the IC50 in assay [1] was 0.01 µM; in assay [2], 0.32 µM.

Take `COc1cc2nccc(Oc3ccc(NC(=S)NC(=O)c4cc(C)cc(C)c4)cc3Cl)c2cc1OC` [Example 1019, N-{3-Chloro-4-[(6,7-dimethoxy-4-quinolyl)oxy]phenyl}-N′-(3,5-dimethylbenzoyl)thiourea]: the results for the concentration for half-maximal inhibition (IC50) in assay [1] and in assay [2] were 0.022 µM and 0.187 µM, respectively.

On to `COc1cc2nccc(Oc3ccc(NC(=S)NC(=O)Cc4ccccc4)cc3)c2cc1OC` [Example 1022, N-{4-[(6,7-Dimethoxy-4-quinolyl)oxy]phenyl}-N′-(2-phenylacetyl)thiourea], for which the IC50 in assay [1] came to 0.028 µM; in assay [2], 0.202 µM.

Take `COc1cc2nccc(Oc3ccc(NC(=S)NC(=O)CC4CCCCC4)cc3)c2cc1OC` [Example 1023, N-(2-Cyclohexylacetyl)-N′-{4-[(6,7-dimethoxy-4-quinolyl)oxy]phenyl}thiourea]: the values for the half-maximal inhibitory concentration (IC50) in assay [1] and in assay [2] were 0.022 µM and 0.116 µM, respectively.

In the case of `COc1cc2nccc(Oc3ccc(NC(=S)NC(=O)Cc4ccccc4)c(F)c3)c2cc1OC` [Example 1024, N-{4-[(6,7-Dimethoxy-4-quinolyl)oxy]-2-fluorophenyl}-N′-(2-phenylacetyl)thiourea], the figures for the half-inhibitory concentration (IC50) in assay [1] and in assay [2] were 0.011 µM and 0.141 µM, respectively.

In the case of `COc1ccccc1CCC(=O)NC(=S)Nc1ccc(Oc2ccnc3cc(OC)c(OC)cc23)cc1` [Example 1025, N-{4-[(6,7-Dimethoxy-4-quinolyl)oxy]phenyl}-N′-[3-(2-methoxyphenyl)propanoyl]thiourea], the figures for the concentration for half-maximal inhibition (IC50) in assay [1] and in assay [2] were 0.015 µM and 0.194 µM, respectively.

For `COc1cc2nccc(Oc3ccc(NC(=S)NC(=O)CCc4ccccc4)cc3F)c2cc1OC` [Example 1028, N-{4-[(6,7-Dimethoxy-4-quinolyl)oxy]-3-fluorophenyl}-N′-(3-phenylpropanoyl)thiourea], the IC50 is less than 0.01 µM in assay [1] and 0.545 µM in assay [2].

For `COc1cc2nccc(Oc3ccc(NC(=S)NC(=O)CCC4CCCC4)cc3F)c2cc1OC` [Example 1029, N-(3-Cyclopentylpropanoyl)-N′-{4-[(6,7-dimethoxy-4-quinolyl)oxy]-3-fluorophenyl}thiourea], the 50% inhibitory concentration (IC50) worked out at 0.005 µM in assay [1] and 0.126 µM in assay [2].

Consider `COc1cc2nccc(Oc3ccc(NC(=S)NC(=O)CCC4CCCC4)cc3Cl)c2cc1OC` [Example 1030, N-{3-Chloro-4-[(6,7-dimethoxy-4-quinolyl)oxy]phenyl}-N′-(3-cyclopentylpropanoyl)thiourea], for which the concentration for half-maximal inhibition (IC50) in assay [1] amounted to 0.014 µM; in assay [2], 0.337 µM.

For the compound `COc1cc2nccc(Oc3ccc(NC(=S)NC(=O)COCc4ccccc4)c(F)c3)c2cc1OC` [Example 1031, N-[2-(Benzyloxy)acetyl]-N′-{4-[(6,7-dimethoxy-4-quinolyl)oxy]-2-fluorophenyl}thiourea], the figures for the half-inhibitory concentration (IC50) in assay [1] and in assay [2] were 0.01 µM and 0.254 µM, respectively.

Take `COc1cc2nccc(Oc3ccc(NC(=S)NC(=O)COCc4ccccc4)cc3F)c2cc1OC` [Example 1032, N-[2-(Benzyloxy)acetyl]-N′-{4-[(6,7-dimethoxy-4-quinolyl)oxy]-3-fluorophenyl}thiourea]: the half-maximal inhibitory concentration (IC50) in assay [1] was less than 0.01 µM; in assay [2], 0.321 µM.
